The numbers were not newly measured in patent EP4623708A1, “SWEETENER COMPOSITION FOR POUCHED ORAL PRODUCTS” (Nicoventures Trading Limited, priority 2024, dated 2025), which cites them from elsewhere.

For series [1] the following is noted: relative to sugar.

`CC(/C=C/C=C(C)/C=C/C(=O)O)=C\C=C\C=C(C)\C=C\C=C(C)\C=C\C(=O)O` (stereo in doubt) [norbixin, (2E,4E,6E,8E,10E,12E,14E,16E,18E)-4,8,13,17-tetramethylicosa-2,4,6,8,10,12,14,16,18-nonaenedioic acid]: the solubility in water result was “water-soluble”. Regarding `OC[C@H]1O[C@H](O[C@]2(CCl)O[C@H](CCl)[C@@H](O)[C@@H]2O)[C@H](O)[C@@H](O)[C@H]1Cl` [Sucralose, trichlorogalatosucrose], the “times sweeter than sugar” value in series [1] is reported as “about 600 times”. In the case of `COC(=O)/C=C/C(C)=C\C=C\C(C)=C\C=C\C=C(C)\C=C\C=C(C)\C=C\C(=O)O` [bixin, (2E,4E,6E,8E,10E,12E,14E,16Z,18E)-20-methoxy-4,8,13,17-tetramethyl-20-oxoicosa-2,4,6,8,10,12,14,16,18-nonaenoic acid], the solubility in water entry is reported as “insoluble in water”.
